This note sets out measurements from patent publication US20250108100A1, “C-TERMINAL FRAGMENT OF APOLIPOPROTEIN E AND APPLICATION THEREOF IN INHIBITING y-SECRETASE ACTIVITY” (SYNPHATEC (SHANGHAI) BIOPHARMACEUTICAL TECHNOLOGY CO., LTD., priority 2022, published 2025).

Entries after “also recorded” stand apart in the source; their conditions may differ.

The subject of assay [1] is human APP and β-secretase co-expressed in HEK 293T cells. In words: HEK 293T cells co-expressing APP and β-secretase (BACE1): Aβ ELISA and β-CTF Western blot. Particulars: APP and β-secretase co-expressed, ELISA, vs GFP control. The format is cell-based. Here is the method: The experiment was performed according to the standard procedure in the ELISA analysis kit of Invitrogen Company. • a) The target protein was expressed in HEK 293T cell line. Cells were subcultured one day before transfection, and transfection was performed when the degree of cell adhesion reached 70%-80%. The transfection reagent was lipofectamine2000 (ThermoFisher). • b) 4-6 hours post transfection, medium were replaced with fresh cell culture medium. • c) 36-48 hours post transfection, the cell culture medium was collected, and then the ELISA process was performed or the cell culture medium was frozen in a −80° C. refrigerator. • d) 50 μl of standard samples and experimental samples were added to each well of the 96-well plate. • e) 50 μl of human-derived Aβ40 or Aβ42 or mouse-derived Aβ40 detection antibody was added to each well of the 96-well plate. • f) The above samples were shaken gently and placed at room temperature for 3 hours. • g) The liquid in the well were removed, and the plate was washed 4 times with 1× wash buffer. • h) 100 μl of the buffer containing 1× anti-Rabbit IgG HRP was added. • i) The plate was shaken gently and placed at room temperature for […]. • j) The liquid in the well were removed, and the well was washed 4 times with 1× wash buffer. • k) 100 μl of Stabilized Chromogen was added to each well, and the plate was placed in the dark for 30 minutes at room temperature. • l) 100 μl of Stop Solution was added to each well. • m) The absorbance at 450 nm was measured with a microplate reader. 2.4 qRT-PCR
48 hours after transfection of HEK 293T cells and N2A cells, or 4.5 days after lentivirus infection of neurons, media and lysates were collected. Aβ40 and Aβ42 in the culture medium and cell lysates were detected by an Aβ ELISA kit as indicated in the protocol. (Invitrogen Technology; KHB3481 for human Aβ40, KHB3441 for human Aβ42 and KMB3481 for mouse Aβ40).
Data were analyzed by GraphPad Prism software (v6) using unpaired, paired, or one-sample t-tests. Aβ40 and Aβ42 levels were normalized to the corresponding GFP controls. α-CTF levels were normalized to FL-APP and corresponding GFP controls. All data are represented as mean±SEM. Statistical significance was defined as p<0.05. One, two, three and four stars (*) in the graph indicate p-values <0.05, <0.01, <0.001 and <0.0001, respectively.
(In general: ELISA stands for enzyme-linked immunosorbent assay.)

Assay [2] concerns primary cultured mouse hippocampal or cortical neurons. In words: Endogenous Aβ40 in primary cultured mouse cortical or hippocampal neurons (lentivirus, ELISA). The format is cell-based. To be noted: primary cultured mouse neurons; lentivirus; vs GFP control. As to the method:
Primary cultured neurons were derived from the cortex or hippocampus of 16-day embryonic mice. The mouse cortex or hippocampus was obtained under a stereoscope, and was digested at 37° C. for 10 minutes with 20 U/ml papain (Worthington Company). After digestion, the neurons that exist in single-cell form were seeded with 100,000 neurons per well (24-well plate); the neurons were cultured in the neuron culture medium (Neurobasal medium; ThermoFisher Company) containing 2% B27 (ThermoFisher Company) and 1% penicillin/streptomycin; the fresh culture medium was changed once a week.
The experiment was performed according to the standard procedure in the ELISA analysis kit of Invitrogen Company. • a) The target protein was expressed in HEK 293T cell line. Cells were subcultured one day before transfection, and transfection was performed when the degree of cell adhesion reached 70%-80%. […]
48 hours after transfection of HEK 293T cells and N2A cells, or 4.5 days after lentivirus infection of neurons, media and lysates were collected. Aβ40 and Aβ42 in the culture medium and cell lysates were detected by an Aβ ELISA kit as indicated in the protocol. […]

The subject of assay [3] is HEK 293T cells expressing APP. In words: APP-expressing HEK 293T cells co-incubated with culture medium containing secreted ApoE2 or ApoE CT: α-CTF. To be noted: vs GFP control. The format is cell-based, human. As to the method: • a) A plasmid expressing the target protein in mammalian cells was constructed, and the protein expression promoter is CAG. • b) The target protein was expressed in HEK 293T cell line. Cells were subcultured one day before transfection, and transfection was performed when the degree of cell adhesion reached 70%-80%. The transfection reagent was lipofectamine2000 (ThermoFisher). • c) 4-6 hours post transfection, the medium were replaced with fresh cell culture medium. • d) 36-48 hours post transfection, the cells were lysed (10% 1M tris-HCl (pH=6.8), 4% SDS, 20% glycerol, 0.01% bromophenol blue), and the protein samples were collected and used for Western blot or stored in a −80° C. freezer. • e) Polyacrylamide gel electrophoresis. Before protein loading, the protein was boiled at 98° C. for 10 min, and then centrifuged at 12000 rpm for 10 min. Electrophoresis: 80V for the upper stacking gel; 120V for the lower separating gel. • f) Protein transfer. […]

As for “ApoE2: human apolipoprotein E2, full-length 299 amino acid residues, SEQ ID NO: 12”, the “production of Aβ40” value in assay [1] was “significantly reduces production of Aβ40; also recorded: is reduced; also recorded: significantly reduced Aβ40 levels”. For the same substance, in assay [2], the “endogenously produced Aβ40” value is recorded as “can reduce endogenously produced Aβ40; also recorded: could reduce the endogenous Aβ40”. Further, the “α-CTF produced by APP in cells co-incubated with protein in culture medium” value in assay [3] is “does not significantly alter α-CTF levels; also recorded: does not change the α-CTF; also recorded: does not alter the α-CTF”.
